pIC50: −log10 of the molar value.
system: colon cancer-derived cell line HCT116; experiment: cells; conditions: Homo sapiens, HCT-116, 96 h, read-out: HCT116 (CRC) IC50
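Note: proliferation measured with WST-8, IC50 derived by least-squares fitting.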

| Structure (SMILES) | pIC50 |
| --- | --- |
| Cc1nc2ccc(-n3ncc(C(=O)c4cc5ccc(C6CCN(C)CC6)cc5[nH]4)c3N)cc2[nH]1 [Compound 2] | 5.57 |
| Cc1nc2cc(-n3ncc(C(=O)c4cc5ccc(CN6CCOC[C@@H]6C)cc5[nH]4)c3N)ccc2[nH]1 [Compound 3] | 5.54 |
| Cc1nc2ccc(-n3ncc(C(=O)c4cc5cc(CN6CCCC(F)C6)ccc5[nH]4)c3N)cc2[nH]1 (centres unmarked) [Compound 4] | 5.02 |
| Cc1nc2ccc(-n3ncc(C(=O)c4cc5cc(CN6C(C)CCC6C)ccc5[nH]4)c3N)cc2[nH]1 (centres unmarked) [Compound 5] | 4.96 |
| Cc1nc2cc(-n3ncc(C(=O)c4cc5ccc(OCC6(C)COC6)cc5[nH]4)c3N)ccc2[nH]1 [Compound 6] | 4.92 |
| COCCN(CCOC)Cc1ccc2cc(C(=O)c3cnn(-c4ccc5[nH]c(C)nc5c4)c3N)[nH]c2c1 [Compound 8] | 4.96 |
| Cc1nc2cc(-n3ncc(C(=O)c4cc5ccc(OCCN6CCN(C)CC6)cc5[nH]4)c3N)ccc2[nH]1 [Compound 9] | 5.20 |
| Cc1nc2ccc(-n3ncc(C(=O)c4cc5ccc(C#N)cc5[nH]4)c3N)cc2[nH]1 [Compound 10] | < 4.30 |
| Cc1nc2ccc(-n3ncc(C(=O)c4cc5cc(C6CCN(C(C)C)CC6)ccc5[nH]4)c3N)cc2[nH]1 [Compound 11] | 5.24 |
| Cc1nc2cc(-n3ncc(C(=O)c4cc5ccc(C6CC6)cc5[nH]4)c3N)ccc2[nH]1 [Compound 12] | 5.14 |
| Cc1nc2ccc(-n3ncc(C(=O)c4cc5ccc(-c6cccs6)cc5[nH]4)c3N)cc2[nH]1 [Compound 13] | 6.41 |
| Cc1nc2cc(-n3ncc(C(=O)c4cc5cc6c(cc5[nH]4)OCCO6)c3N)ccc2[nH]1 [Compound 14] | 5.51 |
| Cc1nc2cc(-n3ncc(C(=O)c4cc5ccccc5[nH]4)c3N)c(F)cc2[nH]1 [Compound 15] | 4.72 |
| CCCCc1ccc2cc(C(=O)c3cnn(-c4ccc5nc(C)[nH]c5c4)c3N)[nH]c2c1 [Compound 16] | 4.77 |
| Cc1nc2ccc(-n3ncc(C(=O)c4cc5cc(C6CCN(C7CCCC7)CC6)ccc5[nH]4)c3N)cc2[nH]1 [Compound 17] | 5.42 |
| COc1ccc2cc(C(=O)c3cnn(-c4ccc5[nH]c(C)nc5c4)c3N)[nH]c2c1 [Compound 18] | 4.96 |
| C#CCN(C)Cc1ccc2cc(C(=O)c3cnn(-c4ccc5[nH]c(C)nc5c4)c3N)[nH]c2c1 [Compound 19] | 5.60 |
| Cc1nc2cc(-n3ncc(C(=O)c4cc5ccc(-c6ccc(N7CCOCC7)nc6)cc5[nH]4)c3N)ccc2[nH]1 [Compound 20] | < 4.30 |
| Cc1nc2cc(-n3ncc(C(=O)c4cc5ccc(OC6COC6)cc5[nH]4)c3N)ccc2[nH]1 [Compound 21] | 4.68 |
| Cc1nc2cc(-n3ncc(C(=O)c4cc5ccc(I)cc5[nH]4)c3N)ccc2[nH]1 [Compound 22] | 5.92 |
| CN1CCC(c2ccc3[nH]c(C(=O)c4cnn(-c5ccc6nc(C(F)F)[nH]c6c5)c4N)cc3c2)CC1 [Compound 23] | 5.00 |
| Cc1nc2cc(-n3ncc(C(=O)c4cc5ccc(-c6cnn(C)c6)cc5[nH]4)c3N)ccc2[nH]1 [Compound 24] | < 4.30 |
| COCCOc1ccc2[nH]c(C(=O)c3cnn(-c4ccc5[nH]c(C)nc5c4)c3N)cc2c1 [Compound 25] | < 4.00 |
| Cc1nc2cc(-n3ncc(C(=O)c4cc5ccc(-c6ccc(F)cn6)cc5[nH]4)c3N)ccc2[nH]1 [Compound 26] | 4.96 |
| Cc1nc2ccc(-n3ncc(C(=O)c4cc5ccc(CO)cc5[nH]4)c3N)cc2[nH]1 [Compound 27] | 4.60 |
| Cc1nc2ccc(-n3ncc(C(=O)c4cc5cc(-c6cccnc6)ccc5[nH]4)c3N)cc2[nH]1 [Compound 28] | 4.68 |
| Cc1cc(C)c2cc(C(=O)c3cnn(-c4ccc5[nH]c(C)nc5c4)c3N)[nH]c2c1 [Compound 29] | 5.07 |

| Structure (SMILES) | pIC50 |
| --- | --- |
| CSc1ccc2cc(C(=O)c3cnn(-c4ccc5[nH]c(C)nc5c4)c3N)[nH]c2c1 [Compound 30] | 4.89 |
| Cc1nc2cc(-n3ncc(C(=O)c4cc5cc(C6CCN(C(C)C)CC6)c(C(F)(F)F)cc5[nH]4)c3N)ccc2[nH]1 [Compound 31] | 5.70 |
| Cc1nc2ccc(-n3ncc(C(=O)c4cc5cc(C6=CCNCC6)ccc5[nH]4)c3N)cc2[nH]1 [Compound 32] | 5.06 |
| Cc1nc2cc(-n3ncc(C(=O)c4cc5cc(C(C)(C)C)ccc5[nH]4)c3N)ccc2[nH]1 [Compound 33] | 5.36 |
| Cc1nc2cc(-n3ncc(C(=O)c4cc5ccc(-c6cncc(S(C)(=O)=O)c6)cc5[nH]4)c3N)ccc2[nH]1 [Compound 35] | 5.11 |
| Cc1nc2ccc(-n3ncc(C(=O)c4[nH]c5ccccc5c4F)c3N)cc2[nH]1 [Compound 36] | 5.32 |
| COc1cc(OC)c2cc(C(=O)c3cnn(-c4ccc5[nH]c(C)nc5c4)c3N)[nH]c2c1 [Compound 37] | 5.05 |
| CCCCOc1ccc2[nH]c(C(=O)c3cnn(-c4ccc5[nH]c(C)nc5c4)c3N)cc2c1 [Compound 38] | 5.21 |
| Cc1nc2cc(-n3ncc(C(=O)c4cc5cc(OCC6CC6)ccc5[nH]4)c3N)ccc2[nH]1 [Compound 39] | 4.96 |
| Cc1nc2cc(-n3ncc(C(=O)c4cc5ncccc5[nH]4)c3N)ccc2[nH]1 [Compound 40] | 4.72 |
| Cc1ccc(-c2ccc3cc(C(=O)c4cnn(-c5ccc6[nH]c(C)nc6c5)c4N)[nH]c3c2)cn1 [Compound 41] | < 4.70 |
| Cc1nc2cc(-n3ncc(C(=O)c4cc5c(C)cccc5[nH]4)c3N)ccc2[nH]1 [Compound 42] | 4.82 |
| COc1ncccc1-c1ccc2cc(C(=O)c3cnn(-c4ccc5[nH]c(C)nc5c4)c3N)[nH]c2c1 [Compound 43] | < 4.30 |
| Cc1nc2cc(-n3ncc(C(=O)c4cc5ccc(Br)cc5[nH]4)c3N)ccc2[nH]1 [Compound 44] | 5.00 |
| Cc1nc2cc(-n3ncc(C(=O)c4cc5ccc(OCCN6CCOCC6)cc5[nH]4)c3N)ccc2[nH]1 [Compound 45] | 5.03 |
| Cc1nc2cc(-n3ncc(C(=O)c4cc5cc(CN6CCN(S(C)(=O)=O)CC6)ccc5[nH]4)c3N)ccc2[nH]1 [Compound 47] | 4.85 |
| Cc1nc2cc(-n3ncc(C(=O)c4cc5ccc(O)cc5[nH]4)c3N)ccc2[nH]1 [Compound 48] | 4.43 |
| Cc1nc2ccc(-n3ncc(C(=O)c4cc5ccc(Cl)cc5[nH]4)c3N)cc2[nH]1 [Compound 50] | 4.47 |
| COc1ccccc1-c1ccc2cc(C(=O)c3cnn(-c4ccc5[nH]c(C)nc5c4)c3N)[nH]c2c1 [Compound 51] | 5.29 |
| Cc1nc2cc(-n3ncc(C(=O)c4cc5ccc(-c6ccc(C(F)(F)F)cn6)cc5[nH]4)c3N)ccc2[nH]1 [Compound 52] | 5.00 |
| Cc1nc2cc(-n3ncc(C(=O)c4cc5cc6c(cc5[nH]4)OC(F)(F)O6)c3N)ccc2[nH]1 [Compound 53] | < 4.70 |
| Cc1nc2cc(-n3ncc(C(=O)c4cc5cc(C(=O)N6CCC(N7CCCCC7)CC6)ccc5[nH]4)c3N)ccc2[nH]1 [Compound 54] | < 4.70 |
| Cc1nc2ccc(-n3ncc(C(=O)c4cc5cc(C6CCNCC6)c(F)cc5[nH]4)c3N)cc2[nH]1 [Compound 55] | 4.80 |
| Cc1nc2cc(-n3ncc(C(=O)c4cc5c(OC(C)C)cccc5[nH]4)c3N)ccc2[nH]1 [Compound 56] | 4.72 |
| Cc1nc2cc(-n3ncc(C(=O)c4cc5cc(C(=O)N6CCN(CC(F)(F)F)CC6)ccc5[nH]4)c3N)ccc2[nH]1 [Compound 57] | < 4.70 |
| COc1cc2[nH]c(C(=O)c3cnn(-c4ccc5[nH]c(C)nc5c4)c3N)cc2cc1Cl [Compound 58] | 4.92 |

Reference: patent US10689705B2, “FGFR3 fusion gene and pharmaceutical drug targeting same” (Chugai Seiyaku Kabushiki Kaisha, priority 2012, dated 2020)
